Reference: paper PMC9490236, “Accurate de novo design of membrane-traversing macrocycles” (Cell, 2022)
“And” between values parts separate entries of the source, which are not always exact repeats. Identical values can stand only once. Like-named read-outs stand apart in the source and are kept apart here. Where a SMILES comes first, the peptide text is derived from it. [ ]: non-standard residue; d: D form. dNMeI = CC[C@@H](C)[C@@H](NC)C(=O)O; NMeL = CN[C@@H](CC(C)C)C(=O)O; dNMeL = CN[C@H](CC(C)C)C(=O)O

Columns and labels:
[1] = Parallel artificial membrane permeability assay (PAMPA); conditions: average of replicates R1-R3; BQL = no significant peak detected for the peptide in the acceptor wells
[2] = Pharmacokinetics and oral bioavailability of D11.3 in male Swiss albino mice (IV, PO, SQ); assay type: in vivo; conditions: for MRT last: read-out: MRT0-last
Experimental: In vivo bioavailability assays were conducted in mice and rats. D8.3.p1 and D10.1 were studied in female Balb/C mice by van Voorhis group at University of Washington. D11.2 was evaluated in Sprague Dawley (SD) rats by Robert Griffin’s group at Takeda Pharmaceuticals. D11.3 was studied in the male swiss albino mice by the contract research organization, GVK Biosciences Pvt. Ltd., Hyderabad, India. All animals used in these studies were handled in strict accordance with practices made to minimize suffering. All animal experiments conducted at the University of Washington, USA, and Takeda Pharmaceuticals, USA were approved by the Institutional Animal Care and Use Committee. Animal studies at GVK Biosciences were reviewed and approved by the Institutional Animal Ethics Committee of GVK Biosciences.
We selected four designed macrocycles with diverse structures and in vitro rates of permeability for in vivo oral bioavailability studies in the rodent models. Due to the intensive resource requirements for such studies, these studies were conducted by three different research groups. D8.3.p1 and D10.1 were studied in female Balb/C mice by van Voorhis group at University of Washington. D11.2 was evaluated in Sprague Dawley (SD) rats by Robert Griffin’s group at Takeda Pharmaceuticals. D11.3 was studied in the male swiss albino mice by the contract research organization, GVK Biosciences Pvt. Ltd., Hyderabad, India.
Pharmacokinetic properties of D11.3 were evaluated by the contract research organization, GVK Bio in Swiss Albino male mice after dosing the peptides through oral gavage (PO), subcutaneous (SQ), and intravenous (IV) routes. Plasma samples were collected at multiple time points up to 24 hours. Animals were dosed with 27 gauge needle through tail vein for IV, gastric gavage needle for PO, and 27 gauge needle on dorsal side for SQ. Plasma concentrations were determined using LC-MS/MS based quantification. Pharmacokinetic parameters were determined using non-compartmental analysis with Phoenix software version 8.1.
Dosing vehicle: DMSO (10%) + 10% solutol in PBS (90%) (IV, PO, SQ)
Dose volume: […] (PO, SQ); […] (IV)
Dose: 10 mg/kg (PO) 1 mg/kg (IV), 5mg/kg (SQ)

[3] = male, Swiss albino, mouse, plasma, IV 1.00 mg/kg
[4] = male, Swiss albino, mouse, plasma, PO 10.00 mg/kg
[5] = male, Swiss albino, mouse, plasma, SC 5.00 mg/kg

Structure (SMILES): CC[C@@H](C)[C@H]1NC(=O)[C@@H](CC(C)C)NC(=O)[C@@H](CC(C)C)N(C)C(=O)[C@@H]2CCCN2C(=O)[C@@H](C(C)C)NC(=O)[C@H](CC(C)C)NC(=O)[C@@H](CC(C)C)N(C)C(=O)[C@@H]2CCCN2C1=O [Design D8.3.p1, DLEU DVAL PRO *DLEU DLEU DILE PRO *DLEU] (cyclo(L[dV]P[dNMeL][dL][dI]P[dNMeL]))
- PAMPA_Papp_Avg [1]: 4.61E-06

Structure (SMILES): CC[C@@H](C)[C@H]1NC(=O)[C@H]([C@@H](C)CC)NC(=O)[C@H](CC(C)C)N(C)C(=O)[C@H]2CCCN2C(=O)[C@@H]([C@H](C)CC)NC(=O)[C@@H]([C@H](C)CC)N(C)C(=O)[C@H](CC(C)C)NC(=O)[C@H]2CCCN2C(=O)[C@@H]2CCCN2C(=O)[C@H](C(C)C)NC(=O)[C@H]2CCCN2C1=O [Design D11.3, VAL PRO DPRO LEU *DILE DILE DPRO *LEU ILE DILE DPRO] (cyclo(I[dI][dP]VP[dP]L[dNMeI][dI][dP][NMeL]))
- AUCExtra ([2]; IV 1.00 mg/kg): 3.09%
- Plasma concentration ([2]; IV 1.00 mg/kg, 0.25 h, individual mice M1, M2, M3, 1 mg/kg): 3305.02 ng/mL and 3779.15 ng/mL and 2973.54 ng/mL
- Plasma concentration ([2]; IV 1.00 mg/kg, 1 h, individual mice M1, M2, M3, 1 mg/kg): 931.71 ng/mL and 1218.22 ng/mL and 1283.47 ng/mL
- Plasma concentration ([2]; IV 1.00 mg/kg, 3 h, individual mice M1, M2, M3, 1 mg/kg): 887.86 ng/mL and 328.77 ng/mL and 318.62 ng/mL
- Plasma concentration ([2]; IV 1.00 mg/kg, 5 h, individual mice M1, M2, M3, 1 mg/kg): 240.02 ng/mL and 271.55 ng/mL and 289.17 ng/mL
- Plasma concentration ([2]; IV 1.00 mg/kg, 8 h, individual mice M1, M2, M3, 1 mg/kg): 399.46 ng/mL and 124.26 ng/mL and 182.53 ng/mL
- Plasma concentration ([2]; IV 1.00 mg/kg, 24 h, individual mice M1, M2, M3, 1 mg/kg): 17.65 ng/mL and 30.97 ng/mL and 34.16 ng/mL
- health of animals during the study ([2]; IV 1 mg/kg, PO 10 mg/kg, SQ 5 mg/kg): healthy throughout the duration of the study
- AUCExtra ([2]; PO 10.00 mg/kg): 1.91%
- Plasma concentration ([2]; PO 10.00 mg/kg, 0.08 h, individual mice M1, M2, M3, 10 mg/kg): 47.49 ng/mL and 76.49 ng/mL and 84.94 ng/mL
- Plasma concentration ([2]; PO 10.00 mg/kg, 0.25 h, individual mice M1, M2, M3, 10 mg/kg): 454 ng/mL and 804.64 ng/mL and 992.29 ng/mL
- Plasma concentration ([2]; PO 10.00 mg/kg, 0.5 h, individual mice M1, M2, M3, 10 mg/kg): 2858.02 ng/mL and 2832.99 ng/mL and 1880.71 ng/mL
- Plasma concentration ([2]; PO 10.00 mg/kg, 1 h, individual mice M1, M2, M3, 10 mg/kg): 2950.38 ng/mL and 3417.67 ng/mL and 2525.44 ng/mL
- Plasma concentration ([2]; PO 10.00 mg/kg, 3 h, individual mice M1, M2, M3, 10 mg/kg): 3249.94 ng/mL and 3660.57 ng/mL and 3578.88 ng/mL
- Plasma concentration ([2]; PO 10.00 mg/kg, 5 h, individual mice M1, M2, M3, 10 mg/kg): 3313.72 ng/mL and 2427.94 ng/mL and 1866.9 ng/mL
- Plasma concentration ([2]; PO 10.00 mg/kg, 8 h, individual mice M1, M2, M3, 10 mg/kg): 1232.5 ng/mL and 1764.28 ng/mL and 1439.78 ng/mL
- Plasma concentration ([2]; PO 10.00 mg/kg, 24 h, individual mice M1, M2, M3, 10 mg/kg): 177.35 ng/mL and 48.47 ng/mL and 59.29 ng/mL
- AUCExtra ([2]; SC 5.00 mg/kg): 30.33%
- Plasma concentration ([2]; SC 5.00 mg/kg, 0.08 h, Mean): 10.15 ng/mL
- Plasma concentration ([2]; SC 5.00 mg/kg, 0.25 h, Mean): 35.04 ng/mL
- Plasma concentration ([2]; SC 5.00 mg/kg, 0.5 h, Mean): 38.67 ng/mL
- Plasma concentration ([2]; SC 5.00 mg/kg, 0.5 h, individual mice M1, M2, M3, 5 mg/kg): 23.29 ng/mL and 70.26 ng/mL and 22.46 ng/mL
- Plasma concentration ([2]; SC 5.00 mg/kg, 1 h, individual mice M1, M2, M3, 5 mg/kg): 52.72 ng/mL and 45.05 ng/mL and 34.59 ng/mL
- Plasma concentration ([2]; SC 5.00 mg/kg, 3 h, individual mice M1, M2, M3, 5 mg/kg): 141.22 ng/mL and 103.85 ng/mL and 139.25 ng/mL
- Plasma concentration ([2]; SC 5.00 mg/kg, 24 h, Mean): 50.51 ng/mL
- level at 0.08 h ([2]; male, Swiss Albino, mouse, plasma, iv, 1 mg/kg, IV 1.00 mg/kg, 0.08 h, individual mice M1, M2, M3, read-out: Plasma concentration): 3320 ng/mL
- level at 0.5 h ([2]; male, Swiss Albino, mouse, plasma, iv, 1 mg/kg, IV 1.00 mg/kg, 0.5 h, individual mice M1, M2, M3, read-out: Plasma concentration): 2570 ng/mL
- level at 5 h ([2]; male, Swiss albino, mouse, plasma, sc, 5 mg/kg, SC 5.00 mg/kg, 5 h, individual mice M1, M2, M3, read-out: Plasma concentration): 117 ng/mL
- level at 8 h ([2]; male, Swiss albino, mouse, plasma, sc, 5 mg/kg, SC 5.00 mg/kg, 8 h, individual mice M1, M2, M3, read-out: Plasma concentration): 153 ng/mL
- AUC(0-inf) [2, 3]: 7190 ng·h/mL
- AUC(0-t) [2, 3]: 6970 ng·h/mL
- C0 [2, 3]: 3960 ng/mL
- Vd [2, 3]: 1.12 L/kg
- clearance [2, 3]: 2.32 mL/min/kg
- AUC(0-inf) [2, 4]: 28800 ng·h/mL
- AUC(0-t) [2, 4]: 28200 ng·h/mL
- Cmax [2, 4]: 3500 ng/mL
- Tmax [2, 4]: 3 h
- bioavailability ([2]; male, Swiss albino, mouse, plasma, PO 10.00 mg/kg vs IV 1.00 mg/kg, read-out: F (oral bioavailability)): 40% and 40.1%
- AUC(0-inf) [2, 5]: 3050 ng·h/mL
- AUC(0-t) [2, 5]: 2120 ng·h/mL
- Cmax [2, 5]: 148 ng/mL
- Tmax [2, 5]: 5 h
- half-life ([2]; mouse, in vivo, IV 1.00 mg/kg): 5.58 h
- MRT last ([2]; mouse, in vivo, IV 1.00 mg/kg): 4.64 h
- MRT last ([2]; mouse, in vivo, PO 10.00 mg/kg): 6.32 h
- MRT last ([2]; mouse, in vivo, SC 5.00 mg/kg): 10.7 h
